Experimental findings from PMC2576352, “The V1-V3 region of a brain-derived HIV-1 envelope glycoprotein determines macrophage tropism, low CD4 dependence, increased fusogenicity and altered sensitivity to entry inhibitors” (Retrovirology, 2008) are described below.

Assay [1] deals with SB chimeric Env (spleen gp120-brain gp41) pseudotype. Type of assay: cell-based, HIV-1. As to conditions: HOS-CD4-CCR5 cells, inhibitor + virus 5–6 h at 37°C, luciferase at 2–3 days, non-linear regression, 95% confidence limits in parentheses. How it is done: (§1) To produce Env-pseudotyped, luciferase-reporter viruses, 293T cells were co-transfected using calcium phosphate precipitation (ProFection Mammalian Transfection System, Promega, Madison, WI) with each Env expression vector and with the Env-deficient, pNL4-3-luc^+env^- provirus, developed by N. Landau by introducing a frameshift mutation in the env gene of pNL4-3-luc^+ [87]. Culture supernatants containing the pseudotyped particles were collected 48–72 hours after transfection, clarified by centrifugation, aliquoted and stored at -80°C until use. Pseudotype particles lacking envelope glycoproteins, which are generated by co-transfecting the luciferase HIV-1 pro-viral backbone with an empty expression vector, are used as negative control for all pseudotype infections. Pseudotype stocks were quantitated using a p24^gag antigen capture ELISA (SAIC-National Cancer Institute) and normalized amounts of stocks were used to infect target cells for 5–6 hours at 37°C. At 2–3 days post-infection, the cells were washed with PBS and lysed, and the amount of entry mediated by each Env was measured by detecting luciferase activity (Luciferase Assay System, Promega) in a microplate luminometer (GloMax, Promega), following manufacturer's instructions. Results are obtained as relative light units (RLU) per second. At least three independent experiments were performed for each analysis described below, with 2–8 replicates within each experiment.
(§2) To test for sensitivity to fusion inhibitors, BMS-378806 and HNG-105, the medium from HOS-CD4-CCR5 cells plated in 96-well plates 24 hours before infection, was removed and replaced by fresh medium containing 2× the final concentration of the corresponding inhibitor, and immediately the same volume of viral stocks was added. After 5–6 hours at 37°C, inocula and inhibitors were removed and the cells were incubated for 2–3 days before evaluating the amount of infection.
(§3) Inhibition curves obtained by plotting the relative infection (expressed as a percent of untreated) versus the concentration of the inhibitor were analyzed by non-linear regression with a sigmoidal dose-response model (variable slopes) using GraphPad Prism software, version 4.02 (GraphPad Software, San Diego, CA); this analysis uses a four parameter logistic equation, Y = Bottom + (Top-Bottom)/( 1+10^((log10IC50−X)⋅Slope) ) where Y is the response, Bottom is 0 and Top is 100, X is the logarithm of the concentration, and Slope is the slope of the curve. 50% inhibitory concentrations (IC50) and 95% confidence intervals were estimated from the non-linear regression analysis. Fusogenicity data were analyzed by non-linear regression with a one-phase exponential model (using GraphPad Prism) that uses the equation Y=Ymax(1-e^(-kX)), where Ymax is the maximum response and k is the observed rate. CD4 dependence data were analyzed with SPSS, version 16, using the non-parametric Mann-Whitney test.

In assay [2] the test system is Bv1v3 chimeric Env pseudotype. Type of assay: cell-based, HIV-1. As to conditions: HOS-CD4-CCR5 cells, inhibitor + virus 5–6 h at 37°C, luciferase at 2–3 days, non-linear regression, 95% confidence limits in parentheses. Here is the method: as §1, §2, §3
For assay [3], the system named is Spl (spleen-derived) Env pseudotype. Type of assay: cell-based, HIV-1. The conditions noted are these: HOS-CD4-CCR5 cells, inhibitor + virus 5–6 h at 37°C, luciferase at 2–3 days, non-linear regression, 95% confidence limits in parentheses. Here is the method: as §1, §2, §3
Assay [4] relates to Br(N283T) mutant Env pseudotype. Type of assay: cell-based, HIV-1. The conditions noted are these: HOS-CD4-CCR5 cells, inhibitor + virus 5–6 h at 37°C, luciferase at 2–3 days, non-linear regression, 95% confidence limits in parentheses. How it is done:
as §1, §2, §3

Assay [5] deals with Bv1v2 chimeric Env pseudotype. It is filed as cell-based, HIV-1. The conditions noted are these: HOS-CD4-CCR5 cells, inhibitor + virus 5–6 h at 37°C, luciferase at 2–3 days, non-linear regression, 95% confidence limits in parentheses. How it is done: as §1, §2, §3
A further assay has as its system BaL Env pseudotype. It is filed as cell-based, HIV-1. The conditions noted are these: HOS-CD4-CCR5 cells, inhibitor + virus 5–6 h at 37°C, luciferase at 2–3 days, non-linear regression, 95% confidence limits in parentheses. How it is done: as §1, §2, §3
Assay [6] relates to DS17(N283T) mutant Env pseudotype. It is filed as cell-based, HIV-1. As to conditions: HOS-CD4-CCR5 cells, inhibitor + virus 5–6 h at 37°C, luciferase at 2–3 days, non-linear regression, 95% confidence limits in parentheses. Here is the method:
as §1, §2, §3

Another assay relates to DS17 Env pseudotype. It is filed as cell-based, HIV-1. The conditions noted are these: HOS-CD4-CCR5 cells, inhibitor + virus 5–6 h at 37°C, luciferase at 2–3 days, non-linear regression, 95% confidence limits in parentheses. Here is the method: as §1, §2, §3
Assay [7] relates to Br (brain-derived) Env pseudotype. Type of assay: cell-based, HIV-1. As to conditions: HOS-CD4-CCR5 cells, inhibitor + virus 5–6 h at 37°C, luciferase at 2–3 days, non-linear regression, 95% confidence limits in parentheses. How it is done: as §1, §2, §3
Assay [8] has as its system BS chimeric Env (brain gp120-spleen gp41) pseudotype. Type of assay: cell-based, HIV-1. The conditions noted are these: HOS-CD4-CCR5 cells, inhibitor + virus 5–6 h at 37°C, luciferase at 2–3 days, non-linear regression, 95% confidence limits in parentheses. Here is the method: as §1, §2, §3
Assay [9] deals with T1, N40, biotinylated HR1-derived peptide (HIV-1, biotin on the amino terminus).
T1 construct: peptide derived from the heptad repeat 1 (HR1) region of HIV-1 gp41; Held on a streptavidin SA chip by its biotin; also called HR1-based peptide; source: synthetic peptide, custom synthesized
T1 peptide: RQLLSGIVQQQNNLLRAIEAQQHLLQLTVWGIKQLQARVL
The experiment in a line: SPR; Biacore 3000; biotinylated N40 held on a streptavidin SA chip, N40scr surface as reference; T-1249 and T-1249-BR at 81–650 nM passed over at 25 µl/min, 25°C; 25 mM Tris-HCl, 150 mM NaCl, pH 7.4, 8% DMSO. As to conditions: both partners purified.

Substitutions are numbered along the chain they refer to. Peptide text beside a SMILES is read from it.

For the molecule `CC[C@H](C)[C@H](NC(=O)[C@H](CCC(N)=O)NC(=O)[C@H](C)NC(=O)[C@H](CCC(N)=O)NC(=O)[C@H](CCC(=O)O)NC(=O)[C@H](CC(C)C)NC(=O)[C@H](CC(C)C)NC(=O)[C@H](C)NC(=O)[C@@H](NC(=O)[C@@H](NC(=O)[C@H](CCCCN)NC(=O)[C@H](CCC(N)=O)NC(=O)[C@H](CCC(=O)O)NC(=O)[C@H](Cc1c[nH]c2ccccc12)NC(=O)[C@H](CCC(=O)O)NC(=O)[C@H](CCC(N)=O)NC(=O)[C@@H](N)Cc1c[nH]c2ccccc12)[C@@H](C)CC)[C@@H](C)O)C(=O)N[C@@H](CCC(N)=O)C(=O)N[C@@H](CCC(N)=O)C(=O)N[C@@H](CCC(=O)O)C(=O)N[C@@H](CCCCN)C(=O)N[C@@H](CC(N)=O)C(=O)N[C@@H](CCC(=O)O)C(=O)N[C@@H](Cc1ccc(O)cc1)C(=O)N[C@@H](CCC(=O)O)C(=O)N[C@@H](CC(C)C)C(=O)N[C@@H](CCC(N)=O)C(=O)N[C@@H](CCCCN)C(=O)N[C@@H](CC(C)C)C(=O)N[C@@H](CC(=O)O)C(=O)N[C@@H](CCCCN)C(=O)N[C@@H](Cc1c[nH]c2ccccc12)C(=O)N[C@@H](C)C(=O)N[C@@H](CO)C(=O)N[C@@H](CC(C)C)C(=O)N[C@@H](Cc1c[nH]c2ccccc12)C(=O)N[C@@H](CCC(=O)O)C(=O)N[C@@H](Cc1c[nH]c2ccccc12)C(=O)N[C@@H](Cc1ccccc1)C(=O)O` [T-1249], the IC50 – broadly, the point on the concentration scale where inhibition reaches its midpoint – in [1] was 0.083 µM; in [2], 0.227 µM; in assay [3] it was 0.037 µM; in assay [4], 0.166 µM; in assay [5] it was 0.224 µM; in the assay with BaL Env pseudotype, 0.102 µM. In addition, the IC50 turned out to be 0.155 µM in assay [6], 0.21 µM with DS17 Env pseudotype, 0.173 µM in assay [7] and 0.14 µM in assay [8].
With `CC[C@H](C)[C@H](NC(=O)[C@H](CCC(N)=O)NC(=O)[C@H](C)NC(=O)[C@H](CCC(N)=O)NC(=O)[C@H](CCC(=O)O)NC(=O)[C@H](CC(C)C)NC(=O)[C@H](CC(C)C)NC(=O)[C@H](C)NC(=O)[C@@H](NC(=O)[C@@H](NC(=O)[C@H](CCCCN)NC(=O)[C@H](CCC(N)=O)NC(=O)[C@H](CCC(=O)O)NC(=O)[C@H](Cc1c[nH]c2ccccc12)NC(=O)[C@H](CCC(=O)O)NC(=O)[C@H](CCC(N)=O)NC(=O)[C@@H](N)Cc1c[nH]c2ccccc12)[C@@H](C)CC)[C@@H](C)O)C(=O)N[C@@H](CCC(N)=O)C(=O)N[C@@H](CCC(N)=O)C(=O)N[C@@H](CCC(=O)O)C(=O)N[C@@H](CCSC)C(=O)N[C@@H](CC(N)=O)C(=O)N[C@@H](CCC(=O)O)C(=O)N[C@@H](CCC(N)=O)C(=O)N[C@@H](CCC(=O)O)C(=O)N[C@@H](CC(C)C)C(=O)N[C@@H](CCC(N)=O)C(=O)N[C@@H](CCCCN)C(=O)N[C@@H](CC(C)C)C(=O)N[C@@H](CC(=O)O)C(=O)N[C@H](C(=O)N[C@@H](Cc1c[nH]c2ccccc12)C(=O)N[C@@H](C)C(=O)N[C@@H](CO)C(=O)N[C@@H](CC(C)C)C(=O)N[C@@H](Cc1c[nH]c2ccccc12)C(=O)N[C@@H](CCC(=O)O)C(=O)N[C@@H](Cc1c[nH]c2ccccc12)C(=O)N[C@@H](Cc1ccccc1)C(=O)O)[C@@H](C)O` [T-1249-BR] (H-WQEWEQKITALLEQAQIQQEMNEQELQKLDTWASLWEWF-OH), the IC50 in [1] amounted to 0.041 µM; in assay [2] it was 0.245 µM; in assay [3], 0.027 µM; in [4] it was 0.221 µM; in assay [5], 0.155 µM; in the assay with BaL Env pseudotype it was 0.124 µM. Also, the IC50 was 0.104 µM in assay [6], 0.092 µM in the assay with DS17 Env pseudotype, 0.195 µM in [7] and 0.155 µM in [8].

B1: T-1249 (peptide)
peptide: WQEWEQKITALLEQAQIQQEKNEYELQKLDKWASLWEWF
notes: also called parental T-1249; HR2-derived peptide; source: synthetic peptide, custom synthesized (BioSynthesis, Inc.)
For the molecule B1, the binding result in assay [9] is listed as “binds”.

B2: T-1249-BR (peptide)
peptide: B1 peptide with K21M, Y24Q, K31T
notes: T-1249 with three amino acid changes (printed in bold) that are present in the HR2 region of the H0002GH brain-derived env clones; also called modified T-1249-BR; HR2-derived peptide; source: synthetic peptide, custom synthesized (BioSynthesis, Inc.)
For the molecule B2, the binding result in assay [9] is given as “binds”.
